Source: ChEMBL document CHEMBL1201862, “PubChem BioAssay data set” (2004)
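In this assay, cells in 96-well plates receive the compound at five concentrations for 48 hours. Endpoints are linearly interpolated between the surrounding concentrations. At the GI50, growth is halved.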 Active and inactive are the calls of the source. No stated cut-off is given here; in the data, active = GI50 up to about 1.1 µM and inactive = higher.

Experiments:
Assay in all cases: inhibition of tumour cell growth, NCI panel, 48 h
RPMI-8226 = tested on: RPMI-8226
HOP-92 = tested on: HOP-92
A549 = tested on: A549
786-0 = tested on: 786-0
OVCAR-4 = tested on: OVCAR-4
COLO 205 = tested on: COLO 205
UO-31 = tested on: UO-31
ACHN = tested on: ACHN
SK-MEL-2 = tested on: SK-MEL-2
SW-620 = tested on: SW-620
SK-MEL-5 = tested on: SK-MEL-5
SF-268 = tested on: SF-268
SF-539 = tested on: SF-539
CAKI-1 = tested on: CAKI-1
CCRF-CEM = tested on: CCRF-CEM
SK-MEL-28 = tested on: SK-MEL-28
Hs-578T = tested on: Hs-578T
HCT-116 = tested on: HCT-116
SK-OV-3 = tested on: SK-OV-3
HCC 2998 = tested on: HCC 2998

SMILES	GI50 (RPMI-8226)	GI50 (HOP-92)	GI50 (A549)	GI50 (786-0)	GI50 (OVCAR-4)	GI50 (COLO 205)	GI50 (UO-31)	GI50 (ACHN)	GI50 (SK-MEL-2)	GI50 (SW-620)	GI50 (SK-MEL-5)	GI50 (SF-268)	GI50 (SF-539)	GI50 (CAKI-1)	GI50 (CCRF-CEM)	GI50 (SK-MEL-28)	GI50 (Hs-578T)	GI50 (HCT-116)	GI50 (SK-OV-3)	GI50 (HCC 2998)
CC(=O)OCC(C)C1=C(O)C(=O)C2(C)C/C=C(/C)CC/C=C(\C)CCC(O)C(C)CCC12 (stereo unspecified)	11.9 µM (inactive)	18 µM (inactive)	18 µM (inactive)	16.9 µM (inactive)	17.5 µM (inactive)	17.1 µM (inactive)	14.2 µM (inactive)	16.7 µM (inactive)	20.7 µM (inactive)	19.2 µM (inactive)	17.7 µM (inactive)	18 µM (inactive)	16.3 µM (inactive)	17.3 µM (inactive)	21.5 µM (inactive)	16.7 µM (inactive)	19.6 µM (inactive)	18.8 µM (inactive)	–	–
O=C(NC(=S)Nc1ccc2c(c1)Sc1ccccc1O2)c1ccc([N+](=O)[O-])cc1	> 100 µM (inactive)	> 100 µM (inactive)	> 100 µM (inactive)	> 100 µM (inactive)	> 100 µM (inactive)	> 100 µM (inactive)	> 100 µM (inactive)	> 100 µM (inactive)	> 100 µM (inactive)	> 100 µM (inactive)	> 100 µM (inactive)	> 100 µM (inactive)	> 100 µM (inactive)	> 100 µM (inactive)	> 100 µM (inactive)	> 100 µM (inactive)	> 100 µM (inactive)	> 100 µM (inactive)	> 100 µM (inactive)	–
CC(=O)OCc1cc(CCC(=O)NCCNc2c3ccccc3nc3ccccc23)cc(COC(C)=O)c1O[Si](C)(C)C(C)(C)C	2.57 µM (inactive)	4.89 µM (inactive)	7.13 µM (inactive)	8.81 µM (inactive)	6.19 µM (inactive)	4.35 µM (inactive)	12.9 µM (inactive)	13.8 µM (inactive)	8.95 µM (inactive)	9.44 µM (inactive)	–	–	2.59 µM (inactive)	–	3.7 µM (inactive)	4.73 µM (inactive)	3.3 µM (inactive)	4.61 µM (inactive)	13.9 µM (inactive)	–
Cc1ccc(/N=N/c2c(O)c(C(=O)Nc3ccccc3)cc3ccccc23)c([N+](=O)[O-])c1	> 100 µM (inactive)	> 100 µM (inactive)	> 100 µM (inactive)	> 100 µM (inactive)	> 100 µM (inactive)	> 100 µM (inactive)	> 100 µM (inactive)	> 100 µM (inactive)	> 100 µM (inactive)	> 100 µM (inactive)	> 100 µM (inactive)	> 100 µM (inactive)	–	> 100 µM (inactive)	> 100 µM (inactive)	> 100 µM (inactive)	> 100 µM (inactive)	> 100 µM (inactive)	> 100 µM (inactive)	–
CN1CCc2c(sc3nc(S)nc(S)c23)C1	> 100 µM (inactive)	> 100 µM (inactive)	> 100 µM (inactive)	> 100 µM (inactive)	> 100 µM (inactive)	> 100 µM (inactive)	–	> 100 µM (inactive)	> 100 µM (inactive)	> 100 µM (inactive)	> 100 µM (inactive)	> 100 µM (inactive)	> 100 µM (inactive)	> 100 µM (inactive)	> 100 µM (inactive)	> 100 µM (inactive)	> 100 µM (inactive)	> 100 µM (inactive)	> 100 µM (inactive)	–
CCOC(=O)/C1=C(\C)N(c2ccc(C)cc2)C(=O)c2ccccc2C(=O)c2c(OC(C)=O)ccc(OC(C)=O)c21	13.8 µM (inactive)	29.9 µM (inactive)	26.8 µM (inactive)	34.8 µM (inactive)	12.8 µM (inactive)	13.5 µM (inactive)	38.5 µM (inactive)	16.8 µM (inactive)	24 µM (inactive)	34.7 µM (inactive)	30 µM (inactive)	37.5 µM (inactive)	25.8 µM (inactive)	13.3 µM (inactive)	10.8 µM (inactive)	< 0.01 µM (active)	16.6 µM (inactive)	15.3 µM (inactive)	17.2 µM (inactive)	–
COc1cc(COC(=O)NC(Cc2cccs2)C(=O)O)c([N+](=O)[O-])cc1OC (stereo unspecified)	> 100 µM (inactive)	> 100 µM (inactive)	> 100 µM (inactive)	> 100 µM (inactive)	–	> 100 µM (inactive)	> 100 µM (inactive)	> 100 µM (inactive)	–	> 100 µM (inactive)	> 100 µM (inactive)	> 100 µM (inactive)	> 100 µM (inactive)	–	> 100 µM (inactive)	> 100 µM (inactive)	> 100 µM (inactive)	> 100 µM (inactive)	> 100 µM (inactive)	> 100 µM (inactive)
COc1cc(C2NCCC(c3ccccc3)(c3ccccc3)N2)cc(OC)c1OC (stereo unspecified)	7.36 µM (inactive)	3.52 µM (inactive)	32.4 µM (inactive)	22.6 µM (inactive)	81.1 µM (inactive)	16.1 µM (inactive)	12.2 µM (inactive)	61.2 µM (inactive)	–	19 µM (inactive)	17.3 µM (inactive)	52.4 µM (inactive)	11.3 µM (inactive)	–	39.3 µM (inactive)	17 µM (inactive)	26.1 µM (inactive)	4.43 µM (inactive)	78 µM (inactive)	20.7 µM (inactive)
NC(=O)c1cc(-c2ccc(-n3ccnc3)cc2)nnc1O	> 100 µM (inactive)	> 100 µM (inactive)	> 100 µM (inactive)	> 100 µM (inactive)	> 100 µM (inactive)	> 100 µM (inactive)	> 100 µM (inactive)	> 100 µM (inactive)	–	> 100 µM (inactive)	> 100 µM (inactive)	> 100 µM (inactive)	> 100 µM (inactive)	> 100 µM (inactive)	> 100 µM (inactive)	> 100 µM (inactive)	> 100 µM (inactive)	> 100 µM (inactive)	> 100 µM (inactive)	> 100 µM (inactive)
CCOP(=O)(OCC)C1C(CO)OC(n2ccc(=O)[nH]c2=O)C1O (stereo unspecified)	> 100 µM (inactive)	> 100 µM (inactive)	> 100 µM (inactive)	> 100 µM (inactive)	74.5 µM (inactive)	–	> 100 µM (inactive)	> 100 µM (inactive)	> 100 µM (inactive)	> 100 µM (inactive)	> 100 µM (inactive)	> 100 µM (inactive)	> 100 µM (inactive)	> 100 µM (inactive)	> 10 µM (inactive)	> 100 µM (inactive)	> 100 µM (inactive)	> 100 µM (inactive)	–	78.7 µM (inactive)
CN1CCc2c(sc3ncn(N)c(=N)c23)C1	> 100 µM (inactive)	> 100 µM (inactive)	> 100 µM (inactive)	> 100 µM (inactive)	> 100 µM (inactive)	–	–	> 100 µM (inactive)	61.2 µM (inactive)	> 100 µM (inactive)	> 100 µM (inactive)	> 100 µM (inactive)	> 100 µM (inactive)	> 100 µM (inactive)	36.1 µM (inactive)	> 100 µM (inactive)	> 100 µM (inactive)	> 100 µM (inactive)	> 100 µM (inactive)	–
Cc1ccc(NCC2CC/C(=C\c3ccc(Cl)cc3)C2=O)cc1 (stereo unspecified)	0.635 µM (active)	0.569 µM (active)	49.4 µM (inactive)	4.12 µM (inactive)	24.4 µM (inactive)	14.8 µM (inactive)	21.2 µM (inactive)	10.3 µM (inactive)	–	3.67 µM (inactive)	14.5 µM (inactive)	18.5 µM (inactive)	23.7 µM (inactive)	15.2 µM (inactive)	2.39 µM (inactive)	15.6 µM (inactive)	29 µM (inactive)	11.6 µM (inactive)	> 100 µM (inactive)	30.6 µM (inactive)
Oc1cnnc2nc3ccccc3n12	–	> 100 µM (inactive)	> 100 µM (inactive)	> 100 µM (inactive)	> 100 µM (inactive)	> 100 µM (inactive)	> 100 µM (inactive)	> 100 µM (inactive)	> 100 µM (inactive)	> 100 µM (inactive)	> 100 µM (inactive)	> 100 µM (inactive)	> 100 µM (inactive)	> 100 µM (inactive)	> 100 µM (inactive)	> 100 µM (inactive)	> 100 µM (inactive)	> 100 µM (inactive)	–	> 100 µM (inactive)
CC(C(=O)COCc1ccccc1)P1(=O)OC(C)(C)CN1C(C)(C)C (stereo unspecified)	> 100 µM (inactive)	> 100 µM (inactive)	> 100 µM (inactive)	> 100 µM (inactive)	28.8 µM (inactive)	> 100 µM (inactive)	> 100 µM (inactive)	> 100 µM (inactive)	–	> 100 µM (inactive)	> 100 µM (inactive)	> 100 µM (inactive)	> 100 µM (inactive)	> 100 µM (inactive)	> 100 µM (inactive)	–	> 100 µM (inactive)	> 100 µM (inactive)	> 100 µM (inactive)	> 100 µM (inactive)
NC(=S)N/N=C/c1c[nH]c2ccccc12	79.6 µM (inactive)	21.6 µM (inactive)	> 100 µM (inactive)	> 100 µM (inactive)	> 100 µM (inactive)	> 100 µM (inactive)	> 100 µM (inactive)	> 100 µM (inactive)	> 100 µM (inactive)	> 100 µM (inactive)	> 100 µM (inactive)	> 100 µM (inactive)	> 100 µM (inactive)	> 100 µM (inactive)	10.8 µM (inactive)	> 100 µM (inactive)	> 100 µM (inactive)	> 100 µM (inactive)	> 100 µM (inactive)	–
